Here are results for ten compounds from US9403822B2, “Apoptosis-inducing agents for the treatment of cancer and immune and autoimmune diseases” (AbbVie Inc., priority 2010, dated 2016).

Like-named read-outs stand apart in the source and are kept apart here.

The nature of series [1]: Solubility determination in aqueous media. Conditions: for solubility: phosphate buffer, pH 7.4, aqueous buffer, thermodynamic from solid.
Protocol: Reagents used included 0.1 N HCl, J T Baker Lot G08515; and 50 mM Phosphate pH 7.4, μ=0.155 w/NaCl, NB93214-089, Equipment/Instruments used included balance: Mettler Toledo, UMX2, LC805269; Rainin Pipette; 1000 μL RF09683 μL, 200 μL, RF20783; water bath: Vankel, LC 954896, set at 25° C. and 25 RPM, Thermometer: TB085699); and water bath: Vankel, LC 127535, set at 37° C. and 25 RPM, Thermometer: TB096544).
Examples were tested in aqueous media at 25° C. or 37° C. Excess amount of the bulk drug was weighed out and mixed with an aliquot of target media in a clear glass vial. The vial was sealed with cap and wrapped with aluminum foil, then tumbled in a 25° C. or 37° C. water bath as appropriate. When equilibration was completed, she samples were removed from the water bath and the final pH's were measured. The suspensions were filtered through 4 mm, 0.2 μm Millex-LG syringe filters (hydrophilic PTFE membrane, Millipore, Lot N9JN70696). Each filter was used only for one sample and the first three droplets were discarded. The filtrate was assayed after appropriate dilution with the same solvent as used for stock solution. Three replicates were prepared. The concentration of the sample was calculated against the calibration curve for the compound.
Another series has as its system RS4;11 cells. As to the kind of experiment: RS4;11 cell viability assay (CellTiter Glo). The class given is cell-based. Conditions: acute lymphoblastic leukemia cell line RS4;11, 10% human serum, 48 hours. The source says:
The acute lymphoblastic leukemia (ALL) cell line RS4;11 was used as the primary human cell line to assess the cellular activity of Bcl-2 selective agents in vitro and their efficacy in vivo. Previous studies have shown by BH3 profiling, a mitochondrial assay that classifies blocks in the intrinsic apoptotic pathway, that RS4;11 cells were highly dependant on BCL-2 for survival and sensitive to the Bcl-2 family member inhibitor ABT-737 (Blood, 2008, Vol. III, 2300-2309).
RS4;11 cells were cultured in RPMI-1640 supplemented with 2 mM L-glutamine, 10% FBS, 1 mM sodium pyruvate, 2 mM HEPES, 1% penicillin/streptomycin (Invitrogen), 4.5 g/L glucose and maintained at 37 C containing 5% CO2. To test for the cellular activity of compounds in vitro, cells were treated at 50,000 cells per well in 96-well microliter plates in the presence of 10% human serum for 48 hours in a humidified chamber with 5% CO2. Cell cytotoxicity EC50 values were assessed using CellTiter Glo (Promega) according to the manufacturers recommendations. The EC50 values were determined as a percentage of viable cells following treatment compared to the untreated control cells.
(In general: ATP-based viability assays read luminescence as a measure of living cells.)

A further series addresses GST-Bcl-2 (Homo sapiens (Human), UniProt P10415). As to the kind of experiment: Time Resolved-Fluorescence Resonance Energy Transfer (TR-FRET) Bcl-2 binding assay. The note with it: F-Bak peptide probe 100 nM, GST-Bcl-2 1 nM, Tb-anti-GST 1 nM; Wang's equation. On the procedure:
Determination of the utility of compounds having Formula (I) as binders to and inhibitors of anti-apoptotic Bcl-2 proteins was performed using the Time Resolved-Fluorescence Resonance Energy Transfer (TR-FRET) Assay. Tb-anti-GST antibody was purchased from Invitrogen (Catalog No. PV4216). Representative compounds were serially diluted in dimethyl sulfoxide (DMSO) starting at 50 μM (2× starting concentration; 10% DMSO) and 10 μL were transferred into a 384-well plate. […] For each assay, the probe/antibody and protein/probe/antibody were included on each assay plate as negative and positive controls, respectively. Fluorescence was measured on the ENVISION plate reader (Perkin Elmer) using a 340/35 nm excitation filter and 520/525 (F-Bak peptide) and 495/510 nm (Tb-labeled anti-Histidine antibody) emission filters. Inhibition constants (Ki) are shown in TABLE 2 below and were determined using Wang's equation (Wang Z.-X. An Exact Mathematical Expression For Describing Competitive Binding Of Two Different Ligands To A Protein Molecule. FEBS Lett. 1995, 360:111-4).
(TR-FRET usually uses a lanthanide donor and a delayed reading to cut background.)

Chain of GST-Bcl-2 (P10415 whole entry): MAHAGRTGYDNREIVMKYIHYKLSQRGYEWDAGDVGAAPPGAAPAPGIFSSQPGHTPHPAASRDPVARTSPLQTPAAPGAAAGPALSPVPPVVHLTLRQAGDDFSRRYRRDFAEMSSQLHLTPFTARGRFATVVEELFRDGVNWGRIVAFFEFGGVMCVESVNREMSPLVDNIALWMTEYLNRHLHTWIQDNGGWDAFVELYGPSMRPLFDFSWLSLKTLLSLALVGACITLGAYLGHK

By solubility is commonly meant the concentration that dissolves in the medium under given conditions. Lower therefore signals a poorly soluble substance. In series [1], `CC(C)(CO)CNc1ccc(S(=O)(=O)NC(=O)c2ccc(N3CCN(CC4=C(c5ccc(Cl)cc5)CC(C)(C)CC4)CC3)cc2Oc2cnc3[nH]ccc3c2)cc1[N+](=O)[O-]` [Example 6, 4-(4-{[2-(4-chlorophenyl)-4,4-dimethylcyclohex-1-en-1-yl]methyl}piperazin-1-yl)-N-({4-[(3-hydroxy-2,2-dimethylpropyl)amino]-3-nitrophenyl}sulfonyl)-2-(1H-pyrrolo[2,3-b]pyridin-5-yloxy)benzamide] had a solubility below 1 µg/mL.

One may read the EC50 as the concentration that produces a half-maximal response. What is called Ki is a dissociation constant, usually derived from enzyme kinetics or from competition with a known ligand. Regarding “(5-{5-(4-{[2-(4-chlorophenyl)-4,4-dimethylcyclohex-1-en-1-yl]methyl}piperazin-1-yl)-2-[({3-nitro-4-[(tetrahydro-2H-pyran-4-ylmethyl)amino]phenyl}sulfonyl)carbamoyl]phenoxy}-7H-pyrrolo[2,3-b]pyridin-7-yl)methyl dihydrogen phosphate [Example 2]”, the “Aqueous Solubility (pH 7.4)” value is given as above 4820 ug/mL. In the series with RS4;11 cells, this compound returned an EC50 of 180 nM. At GST-Bcl-2, this compound yielded a Ki below 0.01 nM.

On to `CC1(C)CCC(CN2CCN(c3ccc(C(=O)NS(=O)(=O)c4ccc(OC[C@H]5CC[C@H](O)CC5)c([N+](=O)[O-])c4)c(Oc4cnc5[nH]ccc5c4)c3)CC2)=C(c2ccc(Cl)cc2)C1` [Example 7, Trans-4-(4-{[2-(4-chlorophenyl)-4,4-dimethylcyclohex-1-en-1-yl]methyl}piperazin-1-yl)-N-({4-[(4 hydroxycyclohexyl)methoxy]-3-nitrophenyl}sulfonyl)-2-(1H-pyrrolo[2,3-b]pyridin-5-yloxy)benzamide], for which, in series [1], the solubility is below 1 µg/mL.

In turn, `CC1(C)CCC(CN2CCN(c3ccc(C(=O)NS(=O)(=O)c4ccc(NCC5CCOCC5)c([N+](=O)[O-])c4)c(Oc4cnc5[nH]ccc5c4)c3)CC2)=C(c2ccc(Cl)cc2)C1` [Example 2B, 4-(4-{[2-(4-chlorophenyl)-4,4-dimethylcyclohex-1-en-1-yl]methyl}piperazin-1-yl)-N-({3-nitro-4-[(tetrahydro-2H-pyran-4-ylmethyl)amino]phenyl}sulfonyl)-2-(1H-pyrrolo[2,3-b]pyridin-5-yloxy)benzamide] showed a solubility in series [1] below 4 µg/mL.

As for `CO[C@H]1CC[C@H](CNc2ccc(S(=O)(=O)NC(=O)c3ccc(N4CCN(CC5=C(c6ccc(Cl)cc6)CC(C)(C)CC5)CC4)cc3Oc3cnc4[nH]ccc4c3)cc2[N+](=O)[O-])CC1` [Example 1M, Trans-4-(4-{[2-(4-chlorophenyl)-4,4-dimethylcyclohex-1-en-1-yl]methyl}piperazin-1-yl)-N-[(4-{[(4-methoxycyclohexyl)methyl]amino}-3-nitrophenyl)sulfonyl]-2-(1H-pyrrolo[2,3-b]pyridin-5-yloxy)benzamide], the solubility in series [1] was below 1 µg/mL.

Consider “trans-4-[(4-{[4-(4-{[2-(4-chlorophenyl)-4,4-dimethylcyclohex-1-en-1-yl]methyl}piperazin-1-yl)-2-(1H-pyrrolo[2,3-b]pyridin-5-yloxy)benzoyl]sulfamoyl}-2-nitrophenoxy)methyl]cyclohexyl dihydrogen phosphate [Example 5]”, for which the “Aqueous Solubility (pH 7.4)” value is listed as above 6580 ug/mL. In the series on RS4;11 cells, the EC50 is 42 nM.

“(5-{5-(4-{[2-(4-chlorophenyl)-4,4-dimethylcyclohex-1-en-1-yl]methyl}piperazin-1-yl)-2-[({4-[(4-fluorotetrahydro-2H-pyran-4-yl)methoxy]-3-nitrophenyl}sulfonyl)carbamoyl]phenoxy}-7H-pyrrolo[2,3-b]pyridin-7-yl)methyl dihydrogen phosphate [Example 3]”: the “Aqueous Solubility (pH 7.4)” value is above 10850 ug/mL. In the series on RS4;11 cells, this compound returned an EC50 of 41 nM.

Consider “3-[(4-{[4-(4-{[2-(4-chlorophenyl)-4,4-dimethylcyclohex-1-en-1-yl]methyl}piperazin-1-yl)-2-(1H-pyrrolo[2,3-b]pyridin-5-yloxy)benzoyl]sulfamoyl}-2-nitrophenyl)amino]-2,2-dimethylpropyl dihydrogen phosphate [Example 4]”, for which the “Aqueous Solubility (pH 7.4)” value was 169 ug/mL. The same compound showed an EC50 in the series on RS4;11 cells above 1000 nM. For the same compound, at GST-Bcl-2, the Ki was below 0.01 nM.

Take `CC1(C)CCC(CN2CCN(c3ccc(C(=O)NS(=O)(=O)c4ccc(OCC5(F)CCOCC5)c([N+](=O)[O-])c4)c(Oc4cnc5[nH]ccc5c4)c3)CC2)=C(c2ccc(Cl)cc2)C1` [Example 3E, 4-(4-{[2-(4-chlorophenyl)-4,4-dimethylcyclohex-1-en-1-yl]methyl}piperazin-1-yl)-N-({4-[(4-fluorotetrahydro-2H-pyran-4-yl)methoxy]-3-nitrophenyl}sulfonyl)-2-(1H-pyrrolo[2,3-b]pyridin-5-yloxy)benzamide]: the solubility in series [1] was below 1 µg/mL.

With `CO[C@H]1CC[C@H](CNc2ccc(S(=O)(=O)NC(=O)c3ccc(N4CCN(CC5=C(c6ccc(Cl)cc6)CC(C)(C)CC5)CC4)cc3Oc3cc4ccnc-4n(COP(=O)(O)O)c3)cc2[N+](=O)[O-])CC1` [Example 1, {5-[5-(4-{[2-(4-chlorophenyl)-4,4-dimethylcyclohex-1-en-1-yl]methyl}piperazin-1-yl)-2-{[(4-{[(trans-4-methoxycyclohexyl)methyl]amino}-3-nitrophenyl)sulfonyl]carbamoyl}phenoxy]-7H-pyrrolo[2,3-b]pyridin-7-yl}methyl dihydrogen phosphate], the EC50 in the series with RS4;11 cells turned out to be 310 nM. Further, the “Aqueous Solubility (pH 7.4)” value in series [1] (50 mM phosphate pH 7.4, 25° C. or 37° C.) is above 1159 ug/mL. Further, at GST-Bcl-2, the Ki is below 0.01 nM.
